Source: ChEMBL document CHEMBL1146886, “Antibacterial activity of pyrrolopyridine-substituted oxazolidinones: synthesis and in vitro SAR of various C-5 acetamide replacements” (2006)
In brackets after ≈: the same amount, converted by molar mass.

How the values were obtained:
Assay type in all cases: functional
[1] = tested on: Enterococcus faecium; experiment: Antibacterial activity against gram positive vancomycin-resistant Enterococcus faecium OC 3312
[2] = tested on: Staphylococcus aureus; experiment: Antibacterial activity against gram positive methicillin-susceptible Staphylococcus aureus Smith OC 4172 by broth microdilution assay
[3] = tested on: Enterococcus faecalis; experiment: Antibacterial activity against gram positive vancomycin-susceptible Enterococcus faecalis ATCC 29212
[4] = tested on: Staphylococcus aureus; experiment: Antibacterial activity against gram positive methicillin-resistant Staphylococcus aureus OC 2878
[5] = tested on: Staphylococcus aureus; experiment: Antibacterial activity against gram positive Staphylococcus aureus Smith OC 4172 in presence of 50% mouse serum

SMILES | MIC [1] | MIC [2] | MIC [3] | MIC [4] | MIC [5]
CC(=O)NC[C@H]1CN(c2ccc(-n3cc4cccnc4c3)c(F)c2)C(=O)O1 | 1 µg/mL (≈ 2.71 µM) | 1 µg/mL (≈ 2.71 µM) | 1 µg/mL (≈ 2.71 µM) | 0.5 µg/mL (≈ 1.36 µM) | 2 µg/mL
CS/C(=N/C#N)NC[C@H]1CN(c2ccc(-n3cc4cccnc4c3)c(F)c2)C(=O)O1 | 8 µg/mL (≈ 18.8 µM) | 8 µg/mL (≈ 18.8 µM) | 8 µg/mL (≈ 18.8 µM) | 8 µg/mL (≈ 18.8 µM) | 64 µg/mL
O=C1O[C@@H](COc2cnccn2)CN1c1ccc(-n2cc3cccnc3c2)c(F)c1 | 64 µg/mL (≈ 158 µM) | > 32 µg/mL | 64 µg/mL (≈ 158 µM) | 8 µg/mL (≈ 19.7 µM) | > 32 µg/mL
O=C1O[C@@H](COc2ccon2)CN1c1ccc(-n2cc3cccnc3c2)c(F)c1 | 8 µg/mL (≈ 20.3 µM) | 8 µg/mL (≈ 20.3 µM) | 16 µg/mL (≈ 40.6 µM) | 4 µg/mL (≈ 10.1 µM) | 64 µg/mL
O=C1O[C@@H](COc2cnsn2)CN1c1ccc(-n2cc3cccnc3c2)c(F)c1 | 4 µg/mL (≈ 9.72 µM) | 8 µg/mL (≈ 19.4 µM) | 4 µg/mL (≈ 9.72 µM) | 2 µg/mL (≈ 4.86 µM) | 16 µg/mL
COC(=O)NC[C@H]1CN(c2ccc(N3Cc4cccnc4C3)c(F)c2)C(=O)O1 | 2 µg/mL (≈ 5.18 µM) | 4 µg/mL (≈ 10.4 µM) | 4 µg/mL (≈ 10.4 µM) | 2 µg/mL (≈ 5.18 µM) | 16 µg/mL
O=C1O[C@@H](COc2ccccn2)CN1c1ccc(N2Cc3cccnc3C2)c(F)c1 | > 64 µg/mL | > 128 µg/mL | > 64 µg/mL | 32 µg/mL (≈ 78.7 µM) | > 128 µg/mL
COC(=O)NC[C@H]1CN(c2ccc(-n3cc4cccnc4c3)c(F)c2)C(=O)O1 | 16 µg/mL (≈ 41.6 µM) | 16 µg/mL (≈ 41.6 µM) | 16 µg/mL (≈ 41.6 µM) | 16 µg/mL (≈ 41.6 µM) | 32 µg/mL
CS(=O)(=O)NC[C@H]1CN(c2ccc(N3Cc4cccnc4C3)c(F)c2)C(=O)O1 | 4 µg/mL (≈ 9.84 µM) | 4 µg/mL (≈ 9.84 µM) | 8 µg/mL (≈ 19.7 µM) | 2 µg/mL (≈ 4.92 µM) | 16 µg/mL
O=C1O[C@@H](COc2ccon2)CN1c1ccc(N2Cc3cccnc3C2)c(F)c1 | 16 µg/mL (≈ 40.4 µM) | > 32 µg/mL | > 32 µg/mL | 8 µg/mL (≈ 20.2 µM) | > 64 µg/mL
N#Cc1ccc(OC[C@H]2CN(c3ccc(-n4cc5cccnc5c4)c(F)c3)C(=O)O2)nc1 | > 64 µg/mL | > 128 µg/mL | > 32 µg/mL | > 64 µg/mL | > 128 µg/mL
Cc1cccc(OC[C@H]2CN(c3ccc(N4Cc5cccnc5C4)c(F)c3)C(=O)O2)n1 | > 64 µg/mL | > 128 µg/mL | > 32 µg/mL | > 128 µg/mL | > 128 µg/mL
O=C1O[C@@H](C/N=C/NN[N+](=O)[O-])CN1c1ccc(N2Cc3cccnc3C2)c(F)c1 | 8 µg/mL (≈ 19.3 µM) | 8 µg/mL (≈ 19.3 µM) | 16 µg/mL (≈ 38.5 µM) | 8 µg/mL (≈ 19.3 µM) | 16 µg/mL
O=C(NC[C@H]1CN(c2ccc(N3Cc4cccnc4C3)c(F)c2)C(=O)O1)C1CCC1 | 8 µg/mL (≈ 19.5 µM) | 8 µg/mL (≈ 19.5 µM) | 8 µg/mL (≈ 19.5 µM) | 4 µg/mL (≈ 9.75 µM) | 32 µg/mL
C/C(=N\C#N)NC[C@H]1CN(c2ccc(N3Cc4cccnc4C3)c(F)c2)C(=O)O1 | 4 µg/mL (≈ 10.1 µM) | 2 µg/mL (≈ 5.07 µM) | 4 µg/mL (≈ 10.1 µM) | 2 µg/mL (≈ 5.07 µM) | 8 µg/mL
O=C(CO)NC[C@H]1CN(c2ccc(N3Cc4cccnc4C3)c(F)c2)C(=O)O1 | 16 µg/mL (≈ 41.4 µM) | 32 µg/mL (≈ 82.8 µM) | 32 µg/mL (≈ 82.8 µM) | 16 µg/mL (≈ 41.4 µM) | 32 µg/mL
CCC(=O)NC[C@H]1CN(c2ccc(-n3cc4cccnc4c3)c(F)c2)C(=O)O1 | 16 µg/mL (≈ 41.8 µM) | 32 µg/mL (≈ 83.7 µM) | 16 µg/mL (≈ 41.8 µM) | 16 µg/mL (≈ 41.8 µM) | 32 µg/mL

SMILES | MIC [1] | MIC [2] | MIC [3] | MIC [4] | MIC [5]
O=C1O[C@@H](Cn2ccccc2=O)CN1c1ccc(N2Cc3cccnc3C2)c(F)c1 | > 32 µg/mL | > 32 µg/mL | > 32 µg/mL | 16 µg/mL (≈ 39.4 µM) | 64 µg/mL
CCC(=O)NC[C@H]1CN(c2ccc(N3Cc4cccnc4C3)c(F)c2)C(=O)O1 | 2 µg/mL (≈ 5.2 µM) | 2 µg/mL (≈ 5.2 µM) | 2 µg/mL (≈ 5.2 µM) | 1 µg/mL (≈ 2.6 µM) | 4 µg/mL
O=C(NC[C@H]1CN(c2ccc(N3Cc4cccnc4C3)c(F)c2)C(=O)O1)C1CC1 | 2 µg/mL (≈ 5.05 µM) | 2 µg/mL (≈ 5.05 µM) | 2 µg/mL (≈ 5.05 µM) | 2 µg/mL (≈ 5.05 µM) | 4 µg/mL
CC(=O)OCC(=O)NC[C@H]1CN(c2ccc(N3Cc4cccnc4C3)c(F)c2)C(=O)O1 | 16 µg/mL (≈ 37.3 µM) | 32 µg/mL (≈ 74.7 µM) | 16 µg/mL (≈ 37.3 µM) | 128 µg/mL (≈ 299 µM) | 32 µg/mL
CCOC(=O)NC[C@H]1CN(c2ccc(N3Cc4cccnc4C3)c(F)c2)C(=O)O1 | 8 µg/mL (≈ 20 µM) | 8 µg/mL (≈ 20 µM) | 8 µg/mL (≈ 20 µM) | 4 µg/mL (≈ 9.99 µM) | 64 µg/mL
O=C1O[C@@H](COc2cnccn2)CN1c1ccc(N2Cc3cccnc3C2)c(F)c1 | > 32 µg/mL | > 32 µg/mL | > 32 µg/mL | > 32 µg/mL | > 32 µg/mL
O=C1O[C@@H](Cn2ccccc2=O)CN1c1ccc(-n2cc3cccnc3c2)c(F)c1 | > 128 µg/mL | > 128 µg/mL | > 128 µg/mL | > 128 µg/mL | > 128 µg/mL
CS(=O)(=O)NC[C@H]1CN(c2ccc(-n3cc4cccnc4c3)c(F)c2)C(=O)O1 | > 64 µg/mL | > 64 µg/mL | > 64 µg/mL | > 64 µg/mL | > 64 µg/mL
O=C(NC[C@H]1CN(c2ccc(-n3cc4cccnc4c3)c(F)c2)C(=O)O1)C1CC1 | 8 µg/mL (≈ 20.3 µM) | 8 µg/mL (≈ 20.3 µM) | 16 µg/mL (≈ 40.6 µM) | 8 µg/mL (≈ 20.3 µM) | 16 µg/mL
O=C1O[C@@H](COc2cnsn2)CN1c1ccc(N2Cc3cccnc3C2)c(F)c1 | 2 µg/mL (≈ 4.84 µM) | 2 µg/mL (≈ 4.84 µM) | 8 µg/mL (≈ 19.4 µM) | 1 µg/mL (≈ 2.42 µM) | 8 µg/mL
CS/C(=N\C#N)NC[C@H]1CN(c2ccc(N3Cc4cccnc4C3)c(F)c2)C(=O)O1 | 2 µg/mL (≈ 4.69 µM) | 2 µg/mL (≈ 4.69 µM) | 4 µg/mL (≈ 9.38 µM) | 2 µg/mL (≈ 4.69 µM) | 8 µg/mL
N#Cc1ccc(OC[C@H]2CN(c3ccc(N4Cc5cccnc5C4)c(F)c3)C(=O)O2)nc1 | > 64 µg/mL | > 64 µg/mL | > 16 µg/mL | > 64 µg/mL | > 64 µg/mL
O=C1O[C@@H](C/N=C/NN[N+](=O)[O-])CN1c1ccc(-n2cc3cccnc3c2)c(F)c1 | 32 µg/mL (≈ 77.4 µM) | 64 µg/mL (≈ 155 µM) | 32 µg/mL (≈ 77.4 µM) | > 128 µg/mL | 128 µg/mL
Cc1cccc(OC[C@H]2CN(c3ccc(-n4cc5cccnc5c4)c(F)c3)C(=O)O2)n1 | > 128 µg/mL | > 128 µg/mL | > 64 µg/mL | > 64 µg/mL | > 128 µg/mL
CC(=O)NC[C@H]1CN(c2ccc(N3Cc4cccnc4C3)c(F)c2)C(=O)O1 | 0.5 µg/mL (≈ 1.35 µM) | 0.5 µg/mL (≈ 1.35 µM) | 0.5 µg/mL (≈ 1.35 µM) | 0.25 µg/mL (≈ 0.675 µM) | 1 µg/mL
CC(=O)NC[C@H]1CN(c2ccc(N3CCOCC3)c(F)c2)C(=O)O1 [LINEZOLID] | 2 µg/mL (≈ 5.93 µM) | – | – | 1 µg/mL (≈ 2.96 µM) | –
